Data as given in patent publication US12540131B2 (Merck Sharp & Dohme LLC, priority 2019, dated 2026).

molecular target: GST tagged truncated human mutant G2019S LRRK2 (Homo sapiens (Human), UniProt Q5S007, G2019S); assay: LRRK2 Km ATP LanthaScreen Assay; assay type: biochemical; conditions: G2019S LRRK2, 134 μM ATP (Km ATP), mean values
Procedure, shortened: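 Enzyme (GST-tagged, truncated) was preincubated with compound for 15 min at RT in 50 mM Tris pH 8.5, 10 mM MgCl2, 0.01% Brij-35, 1 mM EGTA, 2 mM DTT and 0.05 mM orthovanadate. Fluorescein-LRRKtide and 134 μM ATP (Km) were then added for 90 min. EDTA and Tb-anti-pERM antibody stopped the reaction; the TR-FRET 520/495 ratio gave 4-parameter IC50s, reported as mean pIC50.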

Sequence of GST tagged truncated human mutant G2019S LRRK2 (Q5S007 970-2527 G2019S): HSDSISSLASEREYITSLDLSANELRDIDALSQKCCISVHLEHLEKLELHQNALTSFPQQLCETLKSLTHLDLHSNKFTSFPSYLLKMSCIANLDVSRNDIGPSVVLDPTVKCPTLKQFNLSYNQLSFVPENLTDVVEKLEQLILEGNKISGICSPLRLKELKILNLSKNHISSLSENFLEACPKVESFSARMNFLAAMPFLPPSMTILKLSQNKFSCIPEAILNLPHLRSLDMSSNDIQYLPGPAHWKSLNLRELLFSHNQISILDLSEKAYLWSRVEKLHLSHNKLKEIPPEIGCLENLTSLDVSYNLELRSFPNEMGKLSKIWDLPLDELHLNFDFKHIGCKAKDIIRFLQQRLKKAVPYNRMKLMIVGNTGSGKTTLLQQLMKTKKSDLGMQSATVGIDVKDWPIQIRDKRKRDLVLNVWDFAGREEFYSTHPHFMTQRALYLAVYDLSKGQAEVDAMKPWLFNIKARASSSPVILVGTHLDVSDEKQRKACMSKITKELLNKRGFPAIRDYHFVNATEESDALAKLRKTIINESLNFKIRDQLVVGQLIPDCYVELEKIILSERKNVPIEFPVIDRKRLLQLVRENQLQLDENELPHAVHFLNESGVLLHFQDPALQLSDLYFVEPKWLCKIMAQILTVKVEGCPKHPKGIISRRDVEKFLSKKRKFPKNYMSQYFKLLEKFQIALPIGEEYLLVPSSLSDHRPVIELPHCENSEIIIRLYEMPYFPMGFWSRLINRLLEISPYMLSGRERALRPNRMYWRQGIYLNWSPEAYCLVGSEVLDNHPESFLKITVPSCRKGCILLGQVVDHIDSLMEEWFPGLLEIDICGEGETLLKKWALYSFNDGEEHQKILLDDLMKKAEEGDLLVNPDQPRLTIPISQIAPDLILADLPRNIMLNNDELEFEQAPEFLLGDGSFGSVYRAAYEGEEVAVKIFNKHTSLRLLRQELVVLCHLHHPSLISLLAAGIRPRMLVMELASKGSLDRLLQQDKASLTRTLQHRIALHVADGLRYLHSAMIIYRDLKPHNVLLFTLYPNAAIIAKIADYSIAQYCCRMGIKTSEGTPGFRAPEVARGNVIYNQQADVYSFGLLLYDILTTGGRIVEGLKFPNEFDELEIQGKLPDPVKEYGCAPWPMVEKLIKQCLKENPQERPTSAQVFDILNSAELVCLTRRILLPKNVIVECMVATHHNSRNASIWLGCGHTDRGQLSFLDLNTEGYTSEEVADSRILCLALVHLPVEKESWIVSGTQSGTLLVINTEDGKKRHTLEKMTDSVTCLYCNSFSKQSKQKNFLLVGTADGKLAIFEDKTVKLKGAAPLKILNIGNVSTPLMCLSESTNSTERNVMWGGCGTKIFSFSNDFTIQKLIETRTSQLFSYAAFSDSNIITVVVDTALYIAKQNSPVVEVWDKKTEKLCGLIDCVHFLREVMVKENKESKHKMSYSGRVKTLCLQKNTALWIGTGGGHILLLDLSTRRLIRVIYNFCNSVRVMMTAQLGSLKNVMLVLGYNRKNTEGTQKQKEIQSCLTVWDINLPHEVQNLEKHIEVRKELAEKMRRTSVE

Structure (SMILES) | LRRK2 pIC50
Cc1cc2cnc(Nc3cnn(C)c3C)nc2cc1[C@@H]1CCN([C@@H]2COC[C@@H]2O)C[C@H]1F (single isomer, unassigned) [Ex-4.257, (3S,4S)(3S,4S) or (3S,4S)(3R,4R) or (3R,4R)(3S,4S) or (3R,4R)(3R,4R) 4-(4-(2-((1,5-dimethyl-1H-pyrazol-4-yl)amino)-6-methylquinazolin-7-yl)-3-fluoropiperidin-1-yl)tetrahydrofuran-3-ol] | >9.20
Cc1cc2cnc(Nc3cnn(C)c3C)nc2cc1[C@@H]1CCN([C@H]2COC[C@H]2O)C[C@H]1F (single isomer, unassigned) [Ex-4.258, (3S,4S)(3S,4S) or (3S,4S)(3R,4R) or (3R,4R)(3S,4S) or (3R,4R)(3R,4R) 4-(4-(2-((1,5-dimethyl-1H-pyrazol-4-yl)amino)-6-methylquinazolin-7-yl)-3-fluoropiperidin-1-yl)tetrahydrofuran-3-ol] | 7.39
Cc1cc2cnc(Nc3cnn(C)c3Cl)nc2cc1[C@@H]1CCN([C@@H]2COC[C@@H]2O)C[C@H]1F (single isomer, unassigned) [Ex-4.259, (3S,4S)(3S,4S) or (3S,4S)(3R,4R) or (3R,4R)(3S,4S) or (3R,4R)(3R,4R) 4-(4-(2-((5-chloro-1-methyl-1H-pyrazol-4-yl)amino)-6-methylquinazolin-7-yl)-3-fluoropiperidin-1-yl)tetrahydrofuran-3-ol] | >9.20
Cc1cc2cnc(Nc3cnn(C)c3Cl)nc2cc1[C@@H]1CCN([C@H]2COC[C@H]2O)C[C@H]1F (single isomer, unassigned) [Ex-4.260, (3S,4S)(3S,4S) or (3S,4S)(3R,4R) or (3R,4R)(3S,4S) or (3R,4R)(3R,4R) 4-(4-(2-((5-chloro-1-methyl-1H-pyrazol-4-yl)amino)-6-methylquinazolin-7-yl)-3-fluoropiperidin-1-yl)tetrahydrofuran-3-ol] | 8.00
CO[C@H]1COC[C@H]1N1CC[C@@H](c2cc3nc(Nc4cnn(C5CC5)c4Cl)ncc3cc2C)[C@H](F)C1 (single isomer, unassigned) [Ex-4.261, (3S,4S)(3S,4S) or (3S,4S)(3R,4R) or (3R,4R)(3S,4S) or (3R,4R)(3R,4R) N-(5-chloro-1-cyclopropyl-1H-pyrazol-4-yl)-7-[3-fluoro-1-(4-methoxyoxolan-3-yl)piperidin-4-yl]-6-methylquinazolin-2-amine] | 7.51
COC12CC(n3ncc(Nc4ncc5cc(Cl)c([C@@H]6CCN([C@@H]7COC[C@@H]7O)C[C@H]6F)cc5n4)c3Cl)(C1)C2 (single isomer, unassigned) [Ex-4.262, (3S,4S)(3S,4S) or (3S,4S)(3R,4R) or (3R,4R)(3S,4S) or (3R,4R)(3R,4R) 4-(4-(6-chloro-2-((5-chloro-1-(3-methoxybicyclo[1.1.1]pentan-1-yl)-1H-pyrazol-4-yl)amino)quinazolin-7-yl)-3-fluoropiperidin-1-yl)tetrahydrofuran-3-ol] | 9.19
Cc1cc2cnc(Nc3cnn(C4CC4)c3C)nc2cc1[C@@H]1CCN(C2COC2)C[C@H]1F (single isomer, unassigned) [Ex-5.3, (3S,4S) or (3R,4R) N-(1-cyclopropyl-5-methyl-1H-pyrazol-4-yl)-7-[3-fluoro-1-(oxetan-3-yl)piperidin-4-yl]-6-methylquinazolin-2-amine] | 8.96
Cc1cc2cnc(Nc3cnn(C4CC4)c3C)nc2cc1[C@H]1CCN(C2COC2)C[C@@H]1F (single isomer, unassigned) [Ex-5.4, (3S,4S) or (3R,4R) N-(1-cyclopropyl-5-methyl-1H-pyrazol-4-yl)-7-[3-fluoro-1-(oxetan-3-yl)piperidin-4-yl]-6-methylquinazolin-2-amine] | 8.75
Cc1cc2cnc(Nc3cnn(CC(C)(C)O)c3C)nc2cc1[C@@H]1CCN(C2COC2)C[C@H]1F (single isomer, unassigned) [Ex-5.5, (3S,4S) or (3R,4R) 1-[4-({7-[3-fluoro-1-(oxetan-3-yl)piperidin-4-yl]-6-methylquinazolin-2-yl}amino)-5-methyl-1H-pyrazol-1-yl]-2-methylpropan-2-ol] | 8.37
Cc1cc2cnc(Nc3cnn(CC(C)(C)O)c3C)nc2cc1[C@H]1CCN(C2COC2)C[C@@H]1F (single isomer, unassigned) [Ex-5.6, (3S,4S) or (3R,4R) 1-[4-({7-[3-fluoro-1-(oxetan-3-yl)piperidin-4-yl]-6-methylquinazolin-2-yl}amino)-5-methyl-1H-pyrazol-1-yl]-2-methylpropan-2-ol] | 8.68
Cc1cc2cnc(Nc3cnn(C4CC4)c3C)nc2cc1C1CCN([C@@H]2COC[C@@H]2O)CC1 (single isomer, unassigned) [Ex-5.7, (3S,4S) or (3R,4R) 4-(4-{2-[(1-cyclopropyl-5-methyl-1H-pyrazol-4-yl)amino]-6-methylquinazolin-7-yl}piperidin-1-yl)oxolan-3-ol] | >9.20
Cc1cc(Nc2ncc3cc(C)c([C@@H]4CCN([C@@H]5COC[C@@H]5O)C[C@H]4F)cc3n2)n(C)n1 (single isomer, unassigned) [Ex-5.9, (3S,4S)(3S,4S) or (3S,4S)(3R,4R) or (3R,4R)(3S,4S) or (3R,4R)(3R,4R) 4-(4-{2-[(1,3-dimethyl-1H-pyrazol-5-yl)amino]-6-methylquinazolin-7-yl}-3-fluoropiperidin-1-yl)oxolan-3-ol] | 8.49
Cc1cc(Nc2ncc3cc(C)c([C@@H]4CCN([C@H]5COC[C@H]5O)C[C@H]4F)cc3n2)n(C)n1 (single isomer, unassigned) [Ex-5.10, (3S,4S)(3S,4S) or (3S,4S)(3R,4R) or (3R,4R)(3S,4S) or (3R,4R)(3R,4R) 4-(4-{2-[(1,3-dimethyl-1H-pyrazol-5-yl)amino]-6-methylquinazolin-7-yl}-3-fluoropiperidin-1-yl)oxolan-3-ol] | 6.66
Cc1cc(Nc2ncc3cc(C)c([C@H]4CCN([C@@H]5COC[C@@H]5O)C[C@@H]4F)cc3n2)n(C)n1 (single isomer, unassigned) [Ex-5.11, (3S,4S)(3S,4S) or (3S,4S)(3R,4R) or (3R,4R)(3S,4S) or (3R,4R)(3R,4R) 4-(4-{2-[(1,3-dimethyl-1H-pyrazol-5-yl)amino]-6-methylquinazolin-7-yl}-3-fluoropiperidin-1-yl)oxolan-3-ol] | 8.57
Cc1cc(Nc2ncc3cc(C)c([C@H]4CCN([C@H]5COC[C@H]5O)C[C@@H]4F)cc3n2)n(C)n1 (single isomer, unassigned) [Ex-5.12, (3S,4S)(3S,4S) or (3S,4S)(3R,4R) or (3R,4R)(3S,4S) or (3R,4R)(3R,4R) 4-(4-{2-[(1,3-dimethyl-1H-pyrazol-5-yl)amino]-6-methylquinazolin-7-yl}-3-fluoropiperidin-1-yl)oxolan-3-ol] | 6.03
Cc1cc(Nc2ncc3cc(C)c(C4CCN([C@]5(C)COC[C@@H]5O)CC4)cc3n2)n(C)n1 (single isomer, unassigned) [Ex-5.13, (3S,4S)(3S,4S) or (3S,4S)(3R,4R) or (3R,4R)(3S,4S) or (3R,4R)(3R,4R) 4-(4-{2-[(1,3-dimethyl-1H-pyrazol-5-yl)amino]-6-methylquinazolin-7-yl}piperidin-1-yl)-4-methyloxolan-3-ol] | 9.00
Cc1cc2cnc(Nc3cc(C(C)(C)C)nn3C)nc2cc1C1CCN([C@]2(C)COC[C@@H]2O)CC1 (single isomer, unassigned) [Ex-5.14, (3S,4S) or (3R,4R) 4-(4-{2-[(3-tert-butyl-1-methyl-1H-pyrazol-5-yl)amino]-6-methylquinazolin-7-yl}piperidin-1-yl)-4-methyloxolan-3-ol] | 9.02
Cc1cc2cnc(Nc3cc(C(F)(F)F)nn3C)nc2cc1C1CCN([C@]2(C)COC[C@@H]2O)CC1 (single isomer, unassigned) [Ex-5.15, (3S,4S) or (3R,4R) 4-methyl-4-[4-(6-methyl-2-{[1-methyl-3-(trifluoromethyl)-1H-pyrazol-5-yl]amino}quinazolin-7-yl)piperidin-1-yl]oxolan-3-ol] | 8.42
Cc1cc2cnc(Nc3cnn(C)c3C(F)(F)F)nc2cc1C1CCN([C@]2(C)COC[C@@H]2O)CC1 (single isomer, unassigned) [Ex-5.16, (3S,4S) or (3R,4R) 4-methyl-4-(4-(6-methyl-2-((1-methyl-5-(trifluoromethyl)-1H-pyrazol-4-yl)amino)quinazolin-7-yl)piperidin-1-yl)tetrahydrofuran-3-ol] | >9.20
N#Cc1cc2cnc(Nc3cnn(C4CC4)c3Cl)nc2cc1[C@H]1CCN(C2COC2)C[C@@H]1F (single isomer, unassigned) [Ex-6.2, (3R,4R) or (3S,4S) 2-((5-chloro-1-cyclopropyl-1H-pyrazol-4-yl)amino)-7-(3-fluoro-1-(oxetan-3-yl)piperidin-4-yl)quinazoline-6-carbonitrile] | >9.20

same assay, conditions: G2019S LRRK2, 134 μM ATP (Km ATP), mean values; read-out: LRRK2 pIC50 (converted)

Structure (SMILES) | IC50
N#Cc1cc2cnc(Nc3cnn(C4CC4)c3Cl)nc2cc1[C@H]1CCN(C2COC2)C[C@@H]1F (single isomer, unassigned) [Ex-6.1, (3R,4R) or (3S,4S) 2-((5-chloro-1-cyclopropyl-1H-pyrazol-4-yl)amino)-7-(3-fluoro-1-(oxetan-3-yl)piperidin-4-yl)quinazoline-6-carbonitrile] | 1.91 nM
